Measured values reported in PubChem BioAssay (NCI).
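Grown in 96-well plates, cells were treated for 48 hours with each compound at five concentrations. Insufficient inhibition: endpoint recorded as highest concentration tested. GI50 is the concentration that inhibits growth by half. Definition used: TGI = concentration required for complete inhibition of growth.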

What was measured:
Experiment in all cases: DTP human tumour cell line panel, 48 h
786-0 renal = test system: 786-0 renal
A498 renal = test system: A498 renal
A549 NSCLC = test system: A549 NSCLC
ACHN renal = test system: ACHN renal
BT-549 breast = test system: BT-549 breast
CAKI-1 renal = test system: CAKI-1 renal
CCRF-CEM leukemia = test system: CCRF-CEM leukemia
COLO 205 colon = test system: COLO 205 colon
DU-145 prostate = test system: DU-145 prostate
EKVX NSCLC = test system: EKVX NSCLC
HCC-2998 colon = test system: HCC-2998 colon
HCT-116 colon = test system: HCT-116 colon
HCT-15 colon = test system: HCT-15 colon
HL-60(TB) leukemia = test system: HL-60(TB) leukemia
HOP-62 NSCLC = test system: HOP-62 NSCLC
HOP-92 NSCLC = test system: HOP-92 NSCLC
HS 578T breast = test system: HS 578T breast
HT29 colon = test system: HT29 colon
IGROV1 ovarian = test system: IGROV1 ovarian
K-562 leukemia = test system: K-562 leukemia
KM12 colon = test system: KM12 colon
LOX IMVI melanoma = test system: LOX IMVI melanoma
M14 melanoma = test system: M14 melanoma
MALME-3M melanoma = test system: MALME-3M melanoma
MCF7 breast = test system: MCF7 breast
MDA-MB-231 breast = test system: MDA-MB-231 breast
MDA-MB-435 = test system: MDA-MB-435
MOLT-4 leukemia = test system: MOLT-4 leukemia
NCI-H226 lung = test system: NCI-H226 lung
NCI-H23 lung = test system: NCI-H23 lung
NCI-H460 lung = test system: NCI-H460 lung
NCI-H522 lung = test system: NCI-H522 lung
NCI/ADR-RES ovarian = test system: NCI/ADR-RES ovarian
OVCAR-3 ovarian = test system: OVCAR-3 ovarian
OVCAR-4 ovarian = test system: OVCAR-4 ovarian
OVCAR-5 ovarian = test system: OVCAR-5 ovarian
OVCAR-8 ovarian = test system: OVCAR-8 ovarian
PC-3 prostate = test system: PC-3 prostate
RPMI-8226 leukemia = test system: RPMI-8226 leukemia
RXF 393 renal = test system: RXF 393 renal
SF-268 CNS = test system: SF-268 CNS
SF-295 CNS = test system: SF-295 CNS
SF-539 CNS = test system: SF-539 CNS
SK-MEL-2 melanoma = test system: SK-MEL-2 melanoma
SK-MEL-28 melanoma = test system: SK-MEL-28 melanoma
SK-MEL-5 melanoma = test system: SK-MEL-5 melanoma
SK-OV-3 ovarian = test system: SK-OV-3 ovarian
SN12C renal = test system: SN12C renal
SNB-19 CNS = test system: SNB-19 CNS
SNB-75 CNS = test system: SNB-75 CNS
SR leukemia = test system: SR leukemia
SW-620 colon = test system: SW-620 colon
T-47D breast = test system: T-47D breast
TK-10 renal = test system: TK-10 renal
U251 CNS = test system: U251 CNS
UACC-257 melanoma = test system: UACC-257 melanoma
UACC-62 melanoma = test system: UACC-62 melanoma
UO-31 renal = test system: UO-31 renal

CC1=C([Se]CC(OC(=O)CC[Se]c2ccccc2)C(=O)NCCCCCC(=O)OCc2ccccc2)C(=O)c2ccccc2C1=O (stereo unspecified)
GI50 (786-0 renal): 3.18 µM | TGI (786-0 renal): 8.36 µM | GI50 (A498 renal): 2.25 µM | TGI (A498 renal): 8.48 µM | GI50 (A549 NSCLC): 2.56 µM | TGI (A549 NSCLC): 6.72 µM | GI50 (ACHN renal): 3.18 µM | TGI (ACHN renal): 13.8 µM | GI50 (BT-549 breast): 2.99 µM | TGI (BT-549 breast): 12.2 µM | GI50 (CAKI-1 renal): 2.57 µM | TGI (CAKI-1 renal): 7.72 µM | GI50 (CCRF-CEM leukemia): 3.61 µM | TGI (CCRF-CEM leukemia): > 100 µM | GI50 (COLO 205 colon): 2.15 µM | TGI (COLO 205 colon): 3.93 µM | GI50 (DU-145 prostate): 3.64 µM | TGI (DU-145 prostate): 11.4 µM | GI50 (EKVX NSCLC): 2.96 µM | TGI (EKVX NSCLC): 29.2 µM | GI50 (HCC-2998 colon): 2.9 µM | TGI (HCC-2998 colon): 7.46 µM | GI50 (HCT-116 colon): 2.12 µM | TGI (HCT-116 colon): 6.53 µM | GI50 (HCT-15 colon): 3.85 µM | TGI (HCT-15 colon): 21.6 µM | GI50 (HL-60(TB) leukemia): 2.75 µM | TGI (HL-60(TB) leukemia): 8.25 µM | GI50 (HOP-62 NSCLC): 1.87 µM | TGI (HOP-62 NSCLC): 4.32 µM | GI50 (HOP-92 NSCLC): 2.46 µM | TGI (HOP-92 NSCLC): 5.91 µM | GI50 (HS 578T breast): 2.47 µM | TGI (HS 578T breast): 34.2 µM | GI50 (HT29 colon): 3.65 µM | TGI (HT29 colon): 12.1 µM | GI50 (IGROV1 ovarian): 1.31 µM | TGI (IGROV1 ovarian): 4.11 µM | GI50 (K-562 leukemia): 3.31 µM | TGI (K-562 leukemia): 23.7 µM | GI50 (KM12 colon): 2.27 µM | TGI (KM12 colon): 5.45 µM | GI50 (LOX IMVI melanoma): 1.81 µM | TGI (LOX IMVI melanoma): 4.28 µM | GI50 (M14 melanoma): 2.04 µM | TGI (M14 melanoma): 4.8 µM | GI50 (MALME-3M melanoma): 2.31 µM | TGI (MALME-3M melanoma): 5.92 µM | GI50 (MCF7 breast): 2.51 µM | TGI (MCF7 breast): 12.7 µM | GI50 (MDA-MB-231 breast): 1.95 µM | TGI (MDA-MB-231 breast): 4.94 µM | GI50 (MDA-MB-435): 2.45 µM | TGI (MDA-MB-435): 7.45 µM | GI50 (MOLT-4 leukemia): 3.61 µM | TGI (MOLT-4 leukemia): 31.2 µM | GI50 (NCI-H226 lung): 2.75 µM | TGI (NCI-H226 lung): 7.07 µM | GI50 (NCI-H23 lung): 2 µM | TGI (NCI-H23 lung): 5.53 µM | GI50 (NCI-H460 lung): 1.78 µM | TGI (NCI-H460 lung): 5.34 µM | GI50 (NCI-H522 lung): 2.28 µM | TGI (NCI-H522 lung): 6.16 µM | GI50 (NCI/ADR-RES ovarian): 2.36 µM | TGI (NCI/ADR-RES ovarian): 6.5 µM | GI50 (OVCAR-3 ovarian): 1.83 µM | TGI (OVCAR-3 ovarian): 4.71 µM | GI50 (OVCAR-4 ovarian): 2.28 µM | TGI (OVCAR-4 ovarian): 6.56 µM | GI50 (OVCAR-5 ovarian): 5.39 µM | TGI (OVCAR-5 ovarian): 20.1 µM | GI50 (OVCAR-8 ovarian): 2.44 µM | TGI (OVCAR-8 ovarian): 7.16 µM | GI50 (PC-3 prostate): 2.26 µM | TGI (PC-3 prostate): 12.4 µM | GI50 (RPMI-8226 leukemia): 3.18 µM | TGI (RPMI-8226 leukemia): 12.9 µM | GI50 (RXF 393 renal): 1.91 µM | TGI (RXF 393 renal): 5.64 µM | GI50 (SF-268 CNS): 2.5 µM | TGI (SF-268 CNS): 6.31 µM | GI50 (SF-295 CNS): 1.97 µM | TGI (SF-295 CNS): 8.46 µM | GI50 (SF-539 CNS): 2.36 µM | TGI (SF-539 CNS): 6.03 µM | GI50 (SK-MEL-2 melanoma): 3.32 µM | TGI (SK-MEL-2 melanoma): 9.96 µM | GI50 (SK-MEL-28 melanoma): 2.98 µM | TGI (SK-MEL-28 melanoma): 7.76 µM | GI50 (SK-MEL-5 melanoma): 1.54 µM | TGI (SK-MEL-5 melanoma): 3.06 µM | GI50 (SK-OV-3 ovarian): 3.95 µM | TGI (SK-OV-3 ovarian): 7.27 µM | GI50 (SN12C renal): 3.25 µM | TGI (SN12C renal): 14.3 µM | GI50 (SNB-19 CNS): 2.72 µM | TGI (SNB-19 CNS): 11 µM | GI50 (SNB-75 CNS): 1.71 µM | TGI (SNB-75 CNS): 6.23 µM | GI50 (SR leukemia): 3.38 µM | TGI (SR leukemia): 17.2 µM | GI50 (SW-620 colon): 3.28 µM | TGI (SW-620 colon): 11.6 µM | GI50 (T-47D breast): 2.2 µM | TGI (T-47D breast): 8.21 µM | GI50 (TK-10 renal): 4.47 µM | TGI (TK-10 renal): 12.4 µM | GI50 (U251 CNS): 1.89 µM | TGI (U251 CNS): 4.07 µM | GI50 (UACC-257 melanoma): 2.78 µM | TGI (UACC-257 melanoma): 7.9 µM | GI50 (UACC-62 melanoma): 1.83 µM | TGI (UACC-62 melanoma): 4.39 µM | GI50 (UO-31 renal): 2.07 µM | TGI (UO-31 renal): 7.41 µM
